Blank lines part the entries; values can stand above or below the molecule they belong to.
Columns and labels:
[1] = MTT cell viability assay (cytotoxicity) in J774 macrophages; assay type: cell-based, murine; conditions: mouse
Description: (§1) The potential cytotoxicity of embelin (1) together with derivatives (4a–4m, 5a–5d, 6a–6m) was tested in cardiomyocytes and macrophages in order to ensure that compounds lack toxicity also in immune cells. Cell viability was determined by the MTT assay.[58] Four dihydroquinoline derivatives (4b, 4f, 4i, and 4m) and six quinoline compounds (6a, 6d, 6e, 6i, 6k, and 6m) maintained higher viable cell rates in both types of cells. IC50 values of these derivatives were higher than 40 μM and were selected for further analysis.
(§2) J774A.1 murine macrophage cells, H9c2 embryonic rat heart-derived cells, and MCF-7 breast cancer cells were purchased from American Type Cell Culture (ATCC, Manassas, VA, USA). Cells were cultured in Dulbecco’s modified Eagle medium with 10% fetal bovine serum and 1% penicillin/streptomycin (Lonza) and were maintained at 37 °C in a humidified incubator containing 5% CO2.
(§3) Cell viability was assessed by conducting an MTT [3-(4,5-dimethylthiazol-2-yl)-2,5-diphenyltetrazolium bromide dye] assay. Briefly, J 774A.1, H9c2, and MCF7 cells were seeded in 96-well plates for 24 h. Then, cells were treated with DOX in the absence or presence of compounds. MTT (Sigma) reagent was added to the medium for 1 h at 37 °C. Then, the formazan was dissolved in dimethyl sulfoxide (DMSO, 100 μL). Absorbance was measured at 540 nm with a microplate reader (BMG Labtech).

[2] = MTT cell viability assay (cytotoxicity) in H9c2 cardiomyocytes; assay type: cell-based, rat; conditions: rat, H9c2 cardiomyocytes, 24 h, MTT; for viability at 24 h, 10 µM / viability at 24 h, 20 µM: mean ± SD, n = 3; for IC50 at 24 h: H9c2 cardiomyocytes (embryonic heart-derived cells), stated for both types of cells
Description: as §1, §2, §3

SMILES: CCCCCCCCCCCC1=C(O)C(=O)C=C(O)C1=O [Compound 1, embelin]
viability at 24 h, 10 µM ([1]; J774 macrophages, 10 μM, 24 h, MTT, mean ± SD, n = 3, read-out: Cell viability (%) J774 macrophages 10 μM): 21.3 ± 2.7%
viability at 24 h, 20 µM ([1]; J774 macrophages, 20 μM, 24 h, MTT, mean ± SD, n = 3, read-out: Cell viability (%) J774 macrophages 20 μM): 15.3 ± 0.8%
viability at 24 h, 10 µM [2]: 36.9 ± 5.8%
viability at 24 h, 20 µM [2]: 8.3 ± 0.1%

melting point: 164 to 166 °C
SMILES: CCCCCCCCCCCC1=C(O)C(=O)C2=C(Nc3ccccc3C2c2ccc([N+](=O)[O-])cc2)C1=O (stereo not drawn) [Compound 4a, 2-Hydroxy-9-(4-nitrophenyl)-3-undecyl-9,10-dihydroacridine-1,4-dione]
viability at 24 h, 10 µM [1]: 50 ± 5.6%
viability at 24 h, 20 µM [1]: 43.7 ± 2%
viability at 24 h, 10 µM [2]: 94.8 ± 3.5%
viability at 24 h, 20 µM [2]: 89.4 ± 0.6%

melting point: 161 to 162 °C
SMILES: CCCCCCCCCCCC1=C(O)C(=O)C2=C(Nc3ccccc3C2c2ccccc2)C1=O (stereo not drawn) [Compound 4b, 2-Hydroxy-9-phenyl-3-undecyl-9,10-dihydroacridine-1,4-dione]
IC50 at 24 h [1]: > 40 µM
viability at 24 h, 10 µM [1]: 99.7 ± 1.1%
viability at 24 h, 20 µM [1]: 98.7 ± 1.2%
IC50 at 24 h [2]: > 40 µM
viability at 24 h, 10 µM [2]: 98.1 ± 6.8%
viability at 24 h, 20 µM [2]: 95.8 ± 7.7%

melting point: 139 to 141 °C
SMILES: CCCCCCCCCCCC1=C(O)C(=O)C2=C(Nc3ccccc3C2c2ccc(Cl)cc2)C1=O (stereo not drawn) [Compound 4c, 2-Hydroxy-9-(4-chlorophenyl)-3-undecyl-9,10-dihydroacridine-1,4-dione]
viability at 24 h, 10 µM [1]: 49.1 ± 3.4%
viability at 24 h, 20 µM [1]: 39.5 ± 3.6%
viability at 24 h, 10 µM [2]: 98.9 ± 3.4%
viability at 24 h, 20 µM [2]: 93.9 ± 2.3%

melting point: 139 to 140 °C
SMILES: CCCCCCCCCCCC1=C(O)C(=O)C2=C(Nc3ccccc3C2c2ccc(Br)cc2)C1=O (stereo not drawn) [Compound 4d, 2-Hydroxy-9-(4-bromophenyl)-3-undecyl-9,10-dihydroacridine-1,4-dione]
viability at 24 h, 10 µM [1]: 38.5 ± 5.9%
viability at 24 h, 20 µM [1]: 32.9 ± 3.4%
viability at 24 h, 10 µM [2]: 99.5 ± 2.7%
viability at 24 h, 20 µM [2]: 98.9 ± 6.1%

melting point: 140 to 142 °C
SMILES: CCCCCCCCCCCC1=C(O)C(=O)C2=C(Nc3ccccc3C2c2ccc(F)cc2)C1=O (stereo not drawn) [Compound 4e, 2-Hydroxy-9-(4-fluorophenyl)-3-undecyl-9,10-dihydroacridine-1,4-dione]
viability at 24 h, 10 µM [1]: 57.3 ± 3.8%
viability at 24 h, 20 µM [1]: 44.6 ± 3.3%
viability at 24 h, 10 µM [2]: 93.4 ± 7.2%
viability at 24 h, 20 µM [2]: 83.7 ± 1.5%

melting point: 240 to 242 °C
SMILES: CCCCCCCCCCCC1=C(O)C(=O)C2=C(Nc3ccccc3C2c2cccc(F)c2)C1=O (stereo not drawn) [Compound 4f, 2-Hydroxy-9-(3-fluorophenyl)-3-undecyl-9,10-dihydroacridine-1,4-dione]
IC50 at 24 h [1]: > 40 µM
viability at 24 h, 10 µM [1]: 99.5 ± 1.3%
viability at 24 h, 20 µM [1]: 97.8 ± 0.6%
IC50 at 24 h [2]: > 40 µM
viability at 24 h, 10 µM [2]: 88.7 ± 5.3%
viability at 24 h, 20 µM [2]: 81.1 ± 2.9%

melting point: 146 to 148 °C
SMILES: CCCCCCCCCCCC1=C(O)C(=O)C2=C(Nc3ccccc3C2c2ccc(C(=O)OC)cc2)C1=O (stereo not drawn) [Compound 4g, Methyl 4-(2-hydroxy-1,4-dioxo-3-undecyl-1,4,9,10-tetrahydroacridin-9-yl)benzoate]
viability at 24 h, 10 µM [1]: 31.2 ± 5.3%
viability at 24 h, 20 µM [1]: 29.6 ± 3.9%
viability at 24 h, 10 µM [2]: 72.6 ± 1.1%
viability at 24 h, 20 µM [2]: 62.1 ± 1.3%

melting point: 190 to 192 °C
SMILES: CCCCCCCCCCCC1=C(O)C(=O)C2=C(Nc3ccccc3C2c2ccsc2)C1=O (stereo not drawn) [Compound 4h, 2-Hydroxy-9-(thiophen-3-yl)-3-undecyl-9,10-dihydroacridine-1,4-dione]
viability at 24 h, 10 µM [1]: 84.9 ± 2.6%
viability at 24 h, 20 µM [1]: 51.4 ± 2.9%
viability at 24 h, 10 µM [2]: 92.5 ± 6.6%
viability at 24 h, 20 µM [2]: 75.8 ± 2.3%

melting point: 152 to 154 °C
SMILES: CCCCCCCCCCCC1=C(O)C(=O)C2=C(Nc3ccccc3C2c2ccc(OC)c(OC)c2)C1=O (stereo not drawn) [Compound 4j, 2-Hydroxy-9-(3,4-dimethoxyphenyl)-3-undecyl-9,10-dihydroacridine-1,4-dione]
viability at 24 h, 10 µM [1]: 89.1 ± 5.5%
viability at 24 h, 20 µM [1]: 36.9 ± 3.8%
viability at 24 h, 10 µM [2]: 68.9 ± 3.6%
viability at 24 h, 20 µM [2]: 60.6 ± 4.9%

melting point: 153 to 155 °C
SMILES: CCCCCCCCCCCC1=C(O)C(=O)C2=C(Nc3ccc(OC)cc3C2c2ccc([N+](=O)[O-])cc2)C1=O (stereo not drawn) [Compound 4k, 2-Hydroxy-7-methoxy-9-(4-nitrophenyl)-3-undecyl-9,10-dihydroacridine-1,4-dione]
viability at 24 h, 10 µM [1]: 55.6 ± 6.7%
viability at 24 h, 20 µM [1]: 37.8 ± 4.8%
viability at 24 h, 10 µM [2]: 99.7 ± 1.1%
viability at 24 h, 20 µM [2]: 90.7 ± 1.5%

SMILES: CCCCCCCCCCCC1=C(O)C(=O)C=C(Nc2ccccc2)C1=O [Compound 5a, 2-Hydroxy-5-(phenylamino)-3-undecylcyclohexa-2,5-diene-1,4-dione]
viability at 24 h, 10 µM [1]: 56.9 ± 4%
viability at 24 h, 20 µM [1]: 56.2 ± 2%
viability at 24 h, 10 µM [2]: 99 ± 7.1%
viability at 24 h, 20 µM [2]: 83 ± 7%

SMILES: CCCCCCCCCCCC1=C(O)C(=O)C=C(Nc2ccc(OC)cc2)C1=O [Compound 5b, 2-Hydroxy-5-((4-methoxyphenyl)amino)-3-undecylcyclohexa-2,5-diene-1,4-dione]
viability at 24 h, 10 µM [1]: 68.4 ± 3.8%
viability at 24 h, 20 µM [1]: 48.3 ± 1.7%
viability at 24 h, 10 µM [2]: 89.3 ± 9.2%
viability at 24 h, 20 µM [2]: 87.4 ± 6.7%

SMILES: CCCCCCCCCCCC1=C(O)C(=O)C=C(Nc2ccc(Br)cc2)C1=O [Compound 5c, 5-((4-Bromophenyl)amino)-2-hydroxy-3-undecylcyclohexa-2,5-diene-1,4-dione]
viability at 24 h, 10 µM [1]: 56.9 ± 5.5%
viability at 24 h, 20 µM [1]: 39.4 ± 5.3%
viability at 24 h, 10 µM [2]: 61.9 ± 2.7%
viability at 24 h, 20 µM [2]: 56.1 ± 3.4%

SMILES: CCCCCCCCCCCC1=C(O)C(=O)C=C(Nc2cccc([N+](=O)[O-])c2)C1=O [Compound 5d, 2-Hydroxy-5-((3-nitrophenyl)amino)-3-undecylcyclohexa-2,5-diene-1,4-dione]
viability at 24 h, 10 µM [1]: 65.5 ± 1.9%
viability at 24 h, 20 µM [1]: 50.8 ± 7%
viability at 24 h, 10 µM [2]: 67.8 ± 2.1%
viability at 24 h, 20 µM [2]: 57.5 ± 1.4%

SMILES: CCCCCCCCCCCC1=C(O)C(=O)c2c(nc3ccccc3c2-c2ccccc2)C1=O [Compound 6b, 2-Hydroxy-9-phenyl-3-undecylacridine-1,4-dione]
viability at 24 h, 10 µM [1]: 81.8 ± 4.7%
viability at 24 h, 20 µM [1]: 63.9 ± 6.6%
viability at 24 h, 10 µM [2]: 99.7 ± 2.1%
viability at 24 h, 20 µM [2]: 68.1 ± 4.6%

SMILES: CCCCCCCCCCCC1=C(O)C(=O)c2c(nc3ccccc3c2-c2ccc(Cl)cc2)C1=O [Compound 6c, 2-Hydroxy-9-(4-chlorophenyl)-3-undecylacridine-1,4-dione]
viability at 24 h, 10 µM [1]: 83.4 ± 0.5%
viability at 24 h, 20 µM [1]: 55.8 ± 5.7%
viability at 24 h, 10 µM [2]: 95 ± 8.4%
viability at 24 h, 20 µM [2]: 74.3 ± 4.8%

SMILES: CCCCCCCCCCCC1=C(O)C(=O)c2c(nc3ccccc3c2-c2ccc(F)cc2)C1=O [Compound 6e, 2-Hydroxy-9-(4-fluorophenyl)-3-undecylacridine-1,4-dione]
IC50 at 24 h [1]: > 40 µM
viability at 24 h, 10 µM [1]: 93.1 ± 4.5%
viability at 24 h, 20 µM [1]: 76.6 ± 5.9%
IC50 at 24 h [2]: > 40 µM
viability at 24 h, 10 µM [2]: 96.7 ± 8.1%
viability at 24 h, 20 µM [2]: 93.9 ± 0.9%

SMILES: CCCCCCCCCCCC1=C(O)C(=O)c2c(nc3ccccc3c2-c2cccc(F)c2)C1=O [Compound 6f, 2-Hydroxy-9-(3-fluorophenyl)-3-undecylacridine-1,4-dione]
viability at 24 h, 10 µM [1]: 79.3 ± 4.6%
viability at 24 h, 20 µM [1]: 62.2 ± 4.3%
viability at 24 h, 10 µM [2]: 98.3 ± 4.9%
viability at 24 h, 20 µM [2]: 84.5 ± 4.3%

SMILES: CCCCCCCCCCCC1=C(O)C(=O)c2c(nc3ccccc3c2-c2ccc(C(=O)OC)cc2)C1=O [Compound 6g, Methyl 4-(2-hydroxy-1,4-dioxo-3-undecyl-1,4-dihydroacridin-9-yl)benzoate]
viability at 24 h, 10 µM [1]: 78.4 ± 5.7%
viability at 24 h, 20 µM [1]: 42.2 ± 0.3%
viability at 24 h, 10 µM [2]: 88.7 ± 10.4%
viability at 24 h, 20 µM [2]: 70.6 ± 3%

SMILES: CCCCCCCCCCCC1=C(O)C(=O)c2c(nc3ccccc3c2-c2ccsc2)C1=O [Compound 6h, 2-Hydroxy-9-(thiophen-3-yl)-3-undecylacridine-1,4-dione]
viability at 24 h, 10 µM [1]: 73.5 ± 2.8%
viability at 24 h, 20 µM [1]: 56.7 ± 3.3%
viability at 24 h, 10 µM [2]: 75.3 ± 5%
viability at 24 h, 20 µM [2]: 71.1 ± 2.8%

SMILES: CCCCCCCCCCCC1=C(O)C(=O)c2c(nc3ccccc3c2-c2ccc(C)c(C)c2)C1=O [Compound 6i, 2-Hydroxy-9-(3,4-dimethylphenyl)-3-undecylacridine-1,4-dione]
IC50 at 24 h [1]: > 40 µM
viability at 24 h, 10 µM [1]: 93.3 ± 4.3%
viability at 24 h, 20 µM [1]: 75.1 ± 2.9%
IC50 at 24 h [2]: > 40 µM
viability at 24 h, 10 µM [2]: 99.8 ± 3%
viability at 24 h, 20 µM [2]: 92.6 ± 5.4%

SMILES: CCCCCCCCCCCC1=C(O)C(=O)c2c(nc3ccccc3c2-c2ccc(OC)c(OC)c2)C1=O [Compound 6j, 2-Hydroxy-9-(3,4-dimethoxyphenyl)-3-undecylacridine-1,4-dione]
viability at 24 h, 10 µM [1]: 85.2 ± 3.7%
viability at 24 h, 20 µM [1]: 64 ± 2.6%
viability at 24 h, 10 µM [2]: 85.5 ± 6.2%
viability at 24 h, 20 µM [2]: 68.4 ± 8.6%

SMILES: CCCCCCCCCCCC1=C(O)C(=O)c2c(nc3cc(C)cc(C)c3c2-c2ccc([N+](=O)[O-])cc2)C1=O [Compound 6l, 2-Hydroxy-6,8-dimethyl-9-(4-nitrophenyl)-3-undecylacridine-1,4-dione]
viability at 24 h, 10 µM [1]: 82.3 ± 0.3%
viability at 24 h, 20 µM [1]: 63.8 ± 4.8%
viability at 24 h, 10 µM [2]: 64.8 ± 6.7%
viability at 24 h, 20 µM [2]: 55.9 ± 9.4%
